Assays:
Experiment in all cases: relative viability (nuclei count vs DMSO), 5 days (fraction); higher = more cells survive
Doxorubicin + Luminespib = compound: COc1cccc2c1C(=O)c1c(O)c3c(c(O)c1C2=O)C[C@@](O)(C(=O)CO)C[C@@H]3O[C@H]1C[C@H](N)[C@H](O)[C@H](C)O1 [Doxorubicin] + CCNC(=O)c1noc(-c2cc(C(C)C)c(O)cc2O)c1-c1ccc(CN2CCOCC2)cc1 [Luminespib] (partner 0.01 µM)
Outline: (§1)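 Cells from lung cancer lines were seeded into 1536-well plates and, one day later, dosed by pin tool. Treatments were either a single drug or a fixed dose of an anchor drug with five library-drug doses (not always all listed) in √10 steps. After 5 days, nuclei were stained in a one-step fixation (final 0.05% Triton X-100, 1% formaldehyde, 1 ug/ml Hoechst) and counted on 4× images, and relative viability is the treated-to-vehicle nuclei ratio, as the median of duplicate plates.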

BAY61-3606 + OSI-027 = compound: COC1=C(C=C(C=C1)C2=CC3=NC=CN3C(=N2)NC4=C(C=CC=N4)C(=O)N)OC [BAY61-3606] + COc1cccc2cc(-c3nc([C@H]4CC[C@H](C(=O)O)CC4)n4ncnc(N)c34)[nH]c12 [OSI-027] (partner 0.5 µM)
Outline: as §1

Doxorubicin + Lapatinib = compound: COc1cccc2c1C(=O)c1c(O)c3c(c(O)c1C2=O)C[C@@](O)(C(=O)CO)C[C@@H]3O[C@H]1C[C@H](N)[C@H](O)[C@H](C)O1 [Doxorubicin] + CS(=O)(=O)CCNCc1ccc(-c2ccc3ncnc(Nc4ccc(OCc5cccc(F)c5)c(Cl)c4)c3c2)o1 [Lapatinib] (partner 2 µM)
Outline: as §1

Doxorubicin + AZD7762 = compound: COc1cccc2c1C(=O)c1c(O)c3c(c(O)c1C2=O)C[C@@](O)(C(=O)CO)C[C@@H]3O[C@H]1C[C@H](N)[C@H](O)[C@H](C)O1 [Doxorubicin] + NC(=O)Nc1cc(-c2cccc(F)c2)sc1C(=O)N[C@H]1CCCNC1 [AZD7762] (partner 0.2 µM)
Outline: as §1

Cell Line | relative viability (Doxorubicin + Luminespib; first compound 0.003162 µM) | relative viability (Doxorubicin + Luminespib; first compound 0.01 µM) | relative viability (Doxorubicin + Luminespib; first compound 0.03162 µM) | relative viability (Doxorubicin + Luminespib; first compound 0.1 µM) | relative viability (BAY61-3606 + OSI-027; first compound 0.02 µM) | relative viability (BAY61-3606 + OSI-027; first compound 0.06325 µM) | relative viability (BAY61-3606 + OSI-027; first compound 0.2 µM) | relative viability (BAY61-3606 + OSI-027; first compound 0.6325 µM) | relative viability (BAY61-3606 + OSI-027; first compound 2 µM) | relative viability (Doxorubicin + Lapatinib; first compound 0.001 µM) | relative viability (Doxorubicin + Lapatinib; first compound 0.003162 µM) | relative viability (Doxorubicin + Lapatinib; first compound 0.01 µM) | relative viability (Doxorubicin + Lapatinib; first compound 0.03162 µM) | relative viability (Doxorubicin + Lapatinib; first compound 0.1 µM) | relative viability (Doxorubicin + AZD7762; first compound 0.001 µM) | relative viability (Doxorubicin + AZD7762; first compound 0.003162 µM) | relative viability (Doxorubicin + AZD7762; first compound 0.01 µM) | relative viability (Doxorubicin + AZD7762; first compound 0.03162 µM) | relative viability (Doxorubicin + AZD7762; first compound 0.1 µM) | relative viability (Doxorubicin + Luminespib; first compound 0.001 µM)
HCC-15 | 0.304 | 0.312 | 0.231 | 0.222 | 0.704 | 0.613 | 0.721 | 0.693 | 0.553 | 0.661 | 0.91 | 0.657 | 0.563 | 0.552 | 1.21 | 1.18 | 1.05 | 1.03 | 1.35 | 
LOU-NH91 | 0.347 | 0.314 | 0.323 | 0.328 | 0.743 | 0.725 | 0.766 | 0.719 | 0.708 |  | 0.736 | 0.765 | 0.579 | 0.599 |  | 0.79 | 0.77 | 0.722 | 0.429 | 0.34
NCI-H23 | 0.221 | 0.235 | 0.18 | 0.23 | 0.629 | 0.72 | 0.442 | 0.561 | 0.512 |  | 1.1 | 0.852 | 0.481 | 0.43 | 0.142 | 0.249 | 0.229 | 0.204 | 0.208 | 
NCI-H1666 | 0.868 | 0.735 | 0.442 | 0.411 | 0.817 | 0.84 | 0.824 | 0.894 | 0.841 | 0.699 | 0.507 | 0.296 | 0.25 | 0.236 | 0.909 | 0.762 | 0.882 | 0.795 | 0.596 | 1.01
NCI-H358 | 0.471 | 0.291 | 0.392 | 0.189 | 0.918 | 0.722 | 0.781 | 0.677 | 0.199 | 0.503 | 0.441 | 0.334 | 0.195 | 0.207 | 0.548 | 0.542 | 0.597 | 0.367 | 0.258 | 0.213
NCI-H2085 | 0.462 | 0.46 | 0.47 | 0.478 | 0.868 | 0.901 | 0.711 | 0.769 | 0.53 | 0.745 | 0.85 | 0.763 | 0.652 | 0.608 | 0.972 | 0.974 | 0.856 | 1.1 | 0.896 | 0.471
NCI-H1734 | 0.196 | 0.175 | 0.18 | 0.213 | 0.605 | 0.523 | 0.529 | 0.542 | 0.372 | 1.07 | 1.06 | 0.948 | 0.53 | 0.466 | 0.515 | 0.58 | 0.539 | 0.318 | 0.283 | 0.869
H3255 | 0.84 | 0.841 | 0.75 | 0.829 | 0.529 | 0.549 | 0.642 | 0.736 | 0.546 | 0.261 | 0.262 | 0.247 | 0.259 | 0.228 | 0.859 | 0.818 | 0.821 | 0.964 | 0.764 | 0.982

Reference: the supplement of paper PMC10307832
